Experimental findings from patent publication US20220411422A1, “ERBB RECEPTOR INHIBITORS” (Dizal (Jiangsu) Pharmaceutical Co., Ltd., priority 2018, published 2022) are described below.

For one data set, the target named is T1, pHER2 (Homo sapiens, UniProt P04626).
T1 construct: pHER2 in cells expressing HER2; endogenous in cells; host or cells: BT474c1
Nature of the data set: pHER2 cellular activity in BT474c1 cell line. It counts as cell-based. As to conditions: BT474c1 cell line. On the procedure: A compound's activity of selective inhibition for HER2 wild type amplification can be evaluated with BT474 cell line (ATCC® HTB-20™). The cell line expressed phosphorylated HER2 protein and its proliferation depended on the amplified gene, which could be used for in vitro PD and anti-proliferation assays.
The compounds' inhibition of target modulation were determined as follows: BT474 cells were sorted in 96 well plates (20000 cells/well) with the DMEM medium containing 10% FBS overnight and then treated with tested compounds at a series of concentrations (3 μM, 0.3 μM, 0.1 μM, 0.03 μM, 0.01 μM, 0.003 μM, 0.001 μM, 0.0001 μM). The plates were incubated for 4 h at 37° C. with 5% CO2 and then the HER2 (Y1248) phosphorylation level of cells in each well were measured with MSD Kit (Phospho-ErbB2 (Tyr1248) Assay Whole Cell Lysate Kit: Cat #K151CLD-3). The assay is a electrochemiluminescent method (MESO SCALE DISCOVERY) for determining both phosphorylated and total HER2 of cells with an MSD SECTOR® Imager and then the ratio of p-HER2/total HER2 can be generated by the machine. The percentage of inhibition was got from formula: % inhibition=100×[1−(ratio of sample well−ratio of Min ctrl well)/(ratio of Max−Ratio of Min ctrl well)]. The IC50 values were further calculated as the compounds concentration required for 50% inhibition in best-fit curves using Prism GraphPad 7.0 or Microsoft Xlfit software.

Another data set deals with T2, wild type EGFR (Homo sapiens, UniProt P00533).
T2 construct: which expresses wild type EGFR protein; endogenous in cells; host or cells: A431
Nature of the data set: pEGFR cellular activity in A431 cell line. It counts as cell-based. How it is done:
A compound's activity of inhibition for EGFR WT can be evaluated with NCI-H838 (ATCC® CRL-5844™) and A431 cell line (the epidermoid carcinoma cell line A-431), which expresses wild type EGFR protein as the count screening to define the selectivity of the compound.
The compounds' inhibition of target modulation were determined as follows: NCI-H838 cells and A431 cells were sorted in 96 well plates (20000 cells/well) with the DMEM medium containing 1% FBS overnight and then treated with tested compounds at a series of concentrations (3 μM, 0.3 μM, 0.1 μM, 0.03 μM, 0.01 μM, 0.003 μM, 0.001 μM, 0.0001 μM). The plates were incubated for 4 h at 37° C. with 5% CO2 followed by the stimulation of recombinant hEGF (100 ng/ml for 10 Min, RD, Cat #236-EG) and then the EGFR (Y1068) phosphorylation level of cells in each well were measured with MSD Kit (MULTI-SPOT®96 4-Spot HB Prototype EGFR Triplex […]: pEGFR (Tyr1068), pEGFR (Tyr1173), Total EGFR (Cat #N45ZB-1). The assay is a electrochemiluminescent method (MESO SCALE DISCOVERY) for determining both phosphorylated and total EGFR of cells with an MSD SECTOR® Imager and then the ratio of p-EGFR/total EGFR can be generated by the machine. The percentage of inhibition was used the formula: % inhibition=100×[1−(ratio of sample well−ratio of Min ctrl well)/(ratio of Max−Ratio of Min ctrl well)]. […]

Data set [1] deals with Human Pgp/BCRP transporter. Nature of the data set: Human Pgp/BCRP transporter substrate assessment. It counts as in vitro ADME.
Data set [2] can be described thus: Blood brain barrier penetration assay in rats (short oral absorption model with blood, plasma and brain binding). Format: in vivo. As to conditions: male, Han Wistar, Table 5, rat. How it is done: In vitro blood, plasma and brain binding assay was carried out with equilibrium dialysis device. […] At the end of incubation, a 50 μL aliquot from the receiver side and a 5 μL from the donor chamber were taken. The 5 μL sample was further diluted with 45 μL of blank blood, plasma or brain homogenate. Paired samples were matrix-matched with either buffer or blank matrix, and mixed for 2 min, and then precipitated with 150 μL cold acetonitrile with 100 ng/mL tolbutamide as internal standard. After centrifuging at 4000 rpm for 20 min, supernatant was diluted with 0.1% formic acid aqueous solution and analyzed for LC/MS/MS (API 4000, Applied Biosystems, Foster City). […] D is dilution factor. […] A Short oral absorption (SOA) model is an in-vivo screening model to identify brain penetration of a compound. Six male Han Wistar rats purchased from Beijing Vital River were orally dosed with the compound. […] Brain tissue was harvested and homogenized in 3× volume of 100 mM phosphate buffered saline (pH7.4). All samples were stored at ˜−70° C. prior to LC/MS/MS analysis. Standards were prepared by spiking blank plasma, blood, brain homogenate and artificial CSF. […] After 2 min vortex and 5 min centrifugation at 14,000 rpm, supernatant was analyzed by LC/MS/MS (API 4000, Applied Biosystems, Foster City). Two sets of standard curves were run at the beginning and end of each batch from blood sample analysis. For brain and CSF samples, one standard curve was analyzed along with test samples. Total brain levels, expressed as brain/blood ratio (Kp,brain) were measured by AUC(brain)/AUC(blood or plasma) in rodents after oral administration. Similarly, CSF levels represented by a ratio of CSF/blood exposure (Kp,CSF) were determined by AUC(CSF)/AUC(blood or plasma). Free fraction of test compound in biological matrix was determined by in vitro blood and brain binding assay. Kp,uu brain and Kp,uu CSF was calculated by the following equation: Kp,uu brain=AUC(brain)/AUC(blood or plasma)×(fubrain/fublood/plasma) and […] Moreover, the ability of Compounds 6 and 16 to cross BBB was assessed in both rat and monkey by measuring unbound brain-to-plasma partition ratio (Kpuu,brain) and unbound CSF-to-plasma partition ratio (Kpuu,CSF) with the method mentioned above.

Data set [3] in a line: Clinical plasma and CSF PK in HER2+ MBC patients. Format: in vivo, human. As to conditions: human, CSF, oral; patients with BM; read-out: averaged Kpuu,CSF. On the procedure:
The plasma concentration of Compound 6 at the dosage of 50 to 200 mg following single dose or multiple doses were tested. […] In patients with BM, averaged Kpuu,CSF was around 1.82 and 0.78 for Compound 6 and its active metabolite Compound 16, respectively.

A short description of data set [4]: Blood brain barrier penetration assay in monkeys. Format: in vivo. As to conditions: CSF, oral; Table 5; monkey. How it is done:
In vitro blood, plasma and brain binding assay was carried out with equilibrium dialysis device. Diluted blood (1:1 with DPBS pH7.4), EDTA-anticoagulated plasma, and brain homogenate (1:3 with DPBS pH7.4) were spiked with 5 μM test compound (in triplicate) and dialyzed against equal volume of 150 μL 100 mM PBS buffer (pH7.4) at 37° C. for appropriate equilibration time in a slowly rotated plate. At the end of incubation, a 50 μL aliquot from the receiver side and a 5 μL from the donor chamber were taken. The 5 μL sample was further diluted with 45 μL of blank blood, plasma or brain homogenate. […] After centrifuging at 4000 rpm for 20 min, supernatant was diluted with 0.1% formic acid aqueous solution and analyzed for LC/MS/MS (API 4000, Applied Biosystems, Foster City). Unbound fraction (fu) of test compound were calculated by the ratio of the buffer side response to the brain homogenate/plasma/blood side response, and unbound fraction (fu,bl, fu,pl and fu,br) of test compound in non-diluted blood and tissue were calculated from measured fu in homogenate and diluted blood with the following equation: fu,bl (fu,br)=(1/D)/[(1/fu−1)+1/D)]. […]
Total brain levels, expressed as brain/blood ratio (Kp,brain) were measured by AUC(brain)/AUC(blood or plasma) in rodents after oral administration. […]
Kp,uu brain and Kp,uu CSF was calculated by the following equation: […]

The next data set has as its target T3, EGFR WT (Homo sapiens, UniProt P00533).
T3 construct: which expresses wild type EGFR protein; endogenous in cells; host or cells: NCI-H838 (ATCC CRL-5844)
Nature of the data set: EGFR (Y1068) phosphorylation in NCI-H838 cells, MSD kit. As to conditions: pEGFR (Y1068), 4 h then hEGF stimulation. Format: cell-based.

The next data set addresses T4, HER2 WT Amplification (Homo sapiens, UniProt P04626).
T4 construct: The cell line expressed phosphorylated HER2 protein and its proliferation depended on the amplified gene; endogenous in cells; host or cells: BT474 (ATCC HTB-20)
Put plainly: HER2 (Y1248) phosphorylation in BT474 cells, MSD kit. It counts as cell-based. As to conditions: pHER2 (Y1248), 4 h. On the procedure:
The plates were incubated for 4 h at 37° C. with 5% CO2 and then the HER2 (Y1248) phosphorylation level of cells in each well were measured with MSD Kit (Phospho-ErbB2 ([…]) Assay Whole Cell Lysate Kit: Cat #[…]-3). The assay is a electrochemiluminescent method (MESO SCALE DISCOVERY) for determining both phosphorylated and total HER2 of cells with an MSD SECTOR® Imager and then the ratio of p-HER2/total HER2 can be generated by the machine.

Each structure is given as a SMILES string.

T2 sequence (P00533 25-1210): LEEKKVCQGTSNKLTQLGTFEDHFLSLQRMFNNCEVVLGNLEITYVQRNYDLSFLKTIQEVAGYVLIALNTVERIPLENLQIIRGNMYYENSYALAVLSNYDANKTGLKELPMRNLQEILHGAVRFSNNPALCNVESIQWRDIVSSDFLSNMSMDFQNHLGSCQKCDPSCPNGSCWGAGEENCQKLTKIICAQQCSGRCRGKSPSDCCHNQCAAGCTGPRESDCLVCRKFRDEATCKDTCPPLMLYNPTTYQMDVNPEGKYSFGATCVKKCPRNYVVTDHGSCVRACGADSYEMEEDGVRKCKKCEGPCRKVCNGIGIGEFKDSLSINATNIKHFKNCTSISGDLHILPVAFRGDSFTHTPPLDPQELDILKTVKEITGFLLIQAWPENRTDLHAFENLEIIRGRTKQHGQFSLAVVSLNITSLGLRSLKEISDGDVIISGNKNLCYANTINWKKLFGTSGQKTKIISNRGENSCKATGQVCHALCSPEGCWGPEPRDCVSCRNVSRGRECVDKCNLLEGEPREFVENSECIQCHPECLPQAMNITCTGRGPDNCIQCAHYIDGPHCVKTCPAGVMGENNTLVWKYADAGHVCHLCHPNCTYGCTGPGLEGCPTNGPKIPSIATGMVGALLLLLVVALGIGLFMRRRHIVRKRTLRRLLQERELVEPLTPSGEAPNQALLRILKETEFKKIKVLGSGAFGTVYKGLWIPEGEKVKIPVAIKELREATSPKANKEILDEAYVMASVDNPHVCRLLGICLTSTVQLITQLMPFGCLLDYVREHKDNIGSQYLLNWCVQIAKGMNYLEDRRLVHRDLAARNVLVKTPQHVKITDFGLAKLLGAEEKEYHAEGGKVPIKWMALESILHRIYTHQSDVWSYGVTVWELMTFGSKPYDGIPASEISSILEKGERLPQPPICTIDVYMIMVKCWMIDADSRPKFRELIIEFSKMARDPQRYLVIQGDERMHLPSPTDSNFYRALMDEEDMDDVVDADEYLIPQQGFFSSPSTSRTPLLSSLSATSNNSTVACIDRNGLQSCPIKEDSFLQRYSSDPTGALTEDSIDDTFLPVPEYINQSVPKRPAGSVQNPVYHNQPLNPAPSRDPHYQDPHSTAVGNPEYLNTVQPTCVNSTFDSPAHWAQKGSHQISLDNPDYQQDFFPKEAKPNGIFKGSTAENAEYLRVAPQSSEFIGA
T3 sequence (P00533 25-1210): as above
T4 sequence (P04626 23-1255): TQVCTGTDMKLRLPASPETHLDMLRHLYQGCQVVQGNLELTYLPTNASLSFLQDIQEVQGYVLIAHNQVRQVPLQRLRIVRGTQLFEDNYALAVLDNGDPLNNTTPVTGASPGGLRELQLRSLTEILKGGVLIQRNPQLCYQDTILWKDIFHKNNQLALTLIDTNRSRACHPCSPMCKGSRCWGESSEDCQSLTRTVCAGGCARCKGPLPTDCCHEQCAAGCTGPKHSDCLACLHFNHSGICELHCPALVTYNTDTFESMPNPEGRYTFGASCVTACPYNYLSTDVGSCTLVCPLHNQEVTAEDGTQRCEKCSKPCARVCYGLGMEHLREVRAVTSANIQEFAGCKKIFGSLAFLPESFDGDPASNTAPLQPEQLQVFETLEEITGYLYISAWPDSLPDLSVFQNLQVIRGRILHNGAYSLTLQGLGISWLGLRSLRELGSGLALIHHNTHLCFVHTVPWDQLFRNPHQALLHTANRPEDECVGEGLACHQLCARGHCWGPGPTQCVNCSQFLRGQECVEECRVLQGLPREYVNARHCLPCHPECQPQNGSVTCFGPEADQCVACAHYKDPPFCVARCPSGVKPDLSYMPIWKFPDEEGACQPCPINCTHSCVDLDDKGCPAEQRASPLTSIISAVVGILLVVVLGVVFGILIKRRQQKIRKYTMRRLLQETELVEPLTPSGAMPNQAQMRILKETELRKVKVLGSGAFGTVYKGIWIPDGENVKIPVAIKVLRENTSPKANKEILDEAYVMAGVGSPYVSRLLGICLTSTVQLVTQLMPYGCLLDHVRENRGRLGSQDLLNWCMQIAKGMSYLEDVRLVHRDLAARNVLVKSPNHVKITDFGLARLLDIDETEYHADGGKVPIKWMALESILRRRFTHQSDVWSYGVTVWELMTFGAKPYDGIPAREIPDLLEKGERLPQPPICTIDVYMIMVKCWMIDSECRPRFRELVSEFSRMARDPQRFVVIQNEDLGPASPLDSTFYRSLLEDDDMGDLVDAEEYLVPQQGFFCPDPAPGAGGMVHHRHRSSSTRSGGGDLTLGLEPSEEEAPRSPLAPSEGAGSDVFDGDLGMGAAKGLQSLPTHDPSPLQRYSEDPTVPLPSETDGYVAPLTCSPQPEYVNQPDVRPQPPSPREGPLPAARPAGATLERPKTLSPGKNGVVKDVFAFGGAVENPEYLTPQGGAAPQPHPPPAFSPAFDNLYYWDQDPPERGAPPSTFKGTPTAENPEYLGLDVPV
T1 sequence (P04626 23-1255): as above

Consider `COc1cc(O[C@H]2CCNCC2(F)F)c2c(Nc3ccc(Oc4ccn5ncnc5c4)c(C)c3)ncnc2c1` [Compound 16, (S)-N-(4-([1,2,4]triazolo[1,5-a]pyridin-7-yloxy)-3-methylphenyl)-5-((3,3-difluoropiperidin-4-yl)oxy)-7-methoxyquinazolin-4-amine], for which the 50% inhibitory concentration (IC50) (usually the concentration that inhibits the measured activity by half) at pHER2 was found to be 0.0035 µM; at wild type EGFR it was 0.74 µM. The “Human Pgp/BCRP transporter substrate” value in data set [1] was “No”. Further, the Kp uu is 0.23 in data set [2] (CSF, read-out: Kp,uu,CSF); 0.12 in data set [2] (brain, read-out: Kp,uu,brain); approximately 0.78 in data set [3]; 0.87 in data set [4].
For the compound `Cc1cc(Nc2ncnc3ccc(NC4=NC(C)(C)CO4)cc23)ccc1Oc1ccn2ncnc2c1` [ONT380, reference compound], the “Human Pgp/BCRP transporter substrate” value in data set [1] was “Yes”. Moreover, in data set [2] (brain, read-out: Kp,uu,brain), the Kp uu is 0.016.
In the case of `CCOc1cc2ncc(C#N)c(Nc3ccc(OCc4ccccn4)c(Cl)c3)c2cc1NC(=O)/C=C/CN(C)C` [Neratinib, reference compound], the “Human Pgp/BCRP transporter substrate” value in data set [1] was “Yes”.
Regarding `Cc1cc(Nc2ncnc3cccc(O[C@@H]4CCN(C)C[C@@H]4F)c23)ccc1Oc1ccn2ccnc2c1` (single isomer, unassigned) [Compound 11], the 50% inhibitory concentration (IC50) at EGFR WT is more than 3 µM; against HER2 WT Amplification it was 0.0131 µM.
